Measured values as given in paper PMC9667936, “Functional mapping of the 14-3-3 hub protein as a guide to design 14-3-3 molecular glues” (Chemical Science, 2022).
Where a SMILES comes first, the peptide text is derived from it. [ ]: non-standard residue; d: D form. The star is where a group is joined. ξ: configuration not given here. FITC = O=C1OC2(c3ccc(O)cc3Oc3cc(O)ccc32)c2ccc(NC(=S)*)cc21; Phe(4-NO2) = N[C@@H](Cc1ccc([N+](=O)[O-])cc1)C(=O)O; ξAla(4-thiazolyl) = NC(Cc1cscn1)C(=O)O; pS = N[C@@H](COP(=O)(O)O)C(=O)O; Nva = CCC[C@H](N)C(=O)O; AEA = NCCOCC(=O)O

Target: T1, 14-3-3γ (Homo sapiens, UniProt P61981)
T1 construct: made in house; host or cells: E. coli NiCo21 (DE3)
T1 sequence (P61981 1-247): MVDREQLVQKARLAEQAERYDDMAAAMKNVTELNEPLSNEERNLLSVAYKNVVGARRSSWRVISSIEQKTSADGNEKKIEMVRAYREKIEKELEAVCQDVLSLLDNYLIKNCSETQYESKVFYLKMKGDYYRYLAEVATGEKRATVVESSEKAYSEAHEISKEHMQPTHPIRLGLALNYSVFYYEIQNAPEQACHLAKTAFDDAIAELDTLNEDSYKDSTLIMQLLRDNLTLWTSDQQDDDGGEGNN
Experiment: Fluorescence anisotropy (FA) binary binding study: 14-3-3 titrated to fluorescein-labelled peptide
Settings: for Fold change to previous / ΔG / ΔΔG (to previous): Table S3
Experimental: 14-3-3γ protein expression (FP/ITC experiments)
(§1) A pPROEX HTb expression vector encoding the human 14-3-3 protein gamma (14-3-3γ) with an N-terminal his6-tag was transformed by heat shock into NiCo21 (DE3) competent cells. Single colonies were cultured in 50 mL LB medium (100 µg/mL ampicillin). After overnight incubation at 37 °C, cultures were transferred to 2 L TB media (100 µg/mL ampicillin, 1 mM MgCl2) and incubated at 37 °C until an OD600 nm of 0.8-1.2 was reached. Protein expression was then induced with 0.4 mM isopropyl-β-d-thiogalactoside (IPTG), and cultures were incubated overnight at 18 °C. Cells were harvested by centrifugation (8600 rpm, 20 minutes, 4 °C) and resuspended in lysis buffer (50 mM Hepes, pH 8.0, 300 mM NaCl, 12.5 mM imidazole, 5 mM MgCl2, 2 mM βME) containing cOmplete™ EDTA-free Protease Inhibitor Cocktail tablets (1 tablet/100 ml lysate) and benzonase (1 µl/100 ml). After lysis using a C3 Emulsiflex-C3 homogenizer (Avestin), the cell lysate was cleared by centrifugation (20000 rpm, 30 minutes, 4 °C) and purified using Ni2+-affinity chromatography (Ni-NTA superflow cartridges, Qiagen).
Typically two 5 mL columns (flow 5 mL/min) were used for a 2 L culture in which the lysate was loaded on the column washed with 10 CV wash buffer (50 mM Hepes, pH 8.0, 300 mM NaCl, 25 mM imidazole, 2 mM βME) and eluted in several fractions (2-4 CV) of elution buffer (50 mM Hepes, pH 8.0, 300 mM NaCl, 250 mM imidazole, 2 mM βME). Fractions containing the 14-3-3 protein were combined and dialyzed into 25 mM HEPES pH 8.0, 100 mM NaCl, 10 mM MgCl2, 500 µM TCEP. Finally, the protein was concentrated to ∼60 mg/mL, analyzed Q-Tof LC/MS, and aliquots were flash-frozen for storage at […]
as §1, with “sigma truncated after T231 (14-3-3σΔc) and” for “gamma (14-3-3γ)”, “tablet/ 100” for “tablet/100”, “µl/ 100” for “µl/100”, “ml).” for “ml). After lysis using a C3 Emulsiflex-C3 homogenizer (Avestin), the cell lysate was cleared by centrifugation (20000 rpm, 30 minutes, 4 °C) and purified using Ni2+-affinity chromatography (Ni-NTA superflow cartridges, Qiagen).”
After lysis using a C3 Emulsiflex-C3 homogenizer (Avestin), the cell lysate was cleared by centrifugation (20000 rpm, 30 minutes, 4 °C) and purified using Ni2+-affinity chromatography (Ni-NTA superflow cartridges, Qiagen). Typically two 5 mL columns were used for a 2 L culture in which the lysate was loaded on the column washed with 10 CV wash buffer (50 mM Hepes, pH 8.0, 300 mM NaCl, 25 mM imidazole, 2 mM βME) and eluted with several fractions (2-4 CV) of elution buffer (50 mM Hepes, pH 8.0, 300 mM NaCl, 250 mM imidazole, 2 mM βME). Fractions containing the 14-3-3 protein were combined and dialyzed into 25 mM HEPES pH 8.0, 200 mM NaCl, 10 mM MgCl2, 2 mM βME. In addition, 1 mg TEV was added for each 100 mg purified protein to remove the purification tag. The cleaved sample was then again loaded on a 10 mL Ni-NTA column to separate the cleaved product from the expression tag and residual uncleaved protein. The flowthrough was loaded on a Superdex 75 pg 16/60 size exclusion column (GE Life Sciences) using 25 mM HEPES, 100 mM NaCl, 10 mM MgCl2, 500 μM TCEP (adjusted to pH=8.0) as running buffer. Fractions containing the 14-3-3 protein were pooled and concentrated to ∼60 mg/mL, analyzed Q-Tof LC/MS, and aliquots were flash-frozen for storage at −80 […]
The peptides 1 and 2a-d were synthesized on 50 µmol scale on a Rink amide MBHA resin […]

[1] = FA KD of peptide divided by KD of previous (one amino acid longer) peptide, mean of n = 3
[2] = KD / KD of previous peptide, replicate 1
[3] = KD / KD of previous peptide, replicate 2
[4] = KD / KD of previous peptide, replicate 3
[5] = calculated from FA KD, mean of n = 3
[6] = ΔG minus ΔG of previous peptide, FA, replicate 1
[7] = ΔG minus ΔG of previous peptide, FA, replicate 2
[8] = ΔG minus ΔG of previous peptide, FA, replicate 3
[9] = ΔG of peptide minus ΔG of previous (one amino acid longer) peptide, FA, mean of n = 3

`CCC[C@H](NC(=O)[C@@H](CCCCN)NC(=O)COCCNC(=S)Nc1ccc2c(c1)C(=O)OC21c2ccc(O)cc2Oc2cc(O)ccc21)C(=O)N[C@@H](Cc1ccc([N+](=O)[O-])cc1)C(=O)NC(Cc1cscn1)C(=O)N[C@@H](COP(=O)(O)O)C(=O)N[C@@H](Cc1ccc([N+](=O)[O-])cc1)C(N)=O` (stereo partly shown) [2h] ({FITC-AEA}-[dK][Nva][Phe(4-NO2)][ξAla(4-thiazolyl)][pS][Phe(4-NO2)]-NH2) was tested, and the “individual ΔΔG of removed residue” value (FA, ΔG relative to the previously truncated peptide) was 0.6 kcal/mol, the “Fold change to previous” value [1] was 2,92 and the “Fold change to previous” value [2] was 2,91. For the same molecule, the “Fold change to previous” value [3] was 2,67, the “Fold change to previous” value [4] was 3,19 and the ΔG [5] was -7,04 kcal/mol. For the same molecule, the ΔG (from FA KD, replicate 1) was -7,08 kcal/mol, the ΔG (from FA KD, replicate 2) was -7,00 kcal/mol and the ΔG (from FA KD, replicate 3) was -7,04 kcal/mol. For the same molecule, the “ΔΔG (to previous)” value [6] was 0,63 kcal/mol, the “ΔΔG (to previous)” value [7] was 0,58 kcal/mol and the “ΔΔG (to previous)” value [8] was 0,69 kcal/mol. For the same molecule, the “ΔΔG (to previous)” value [9] was 0,63 kcal/mol.

`CCC[C@H](NC(=O)[C@@H](CCCCN)NC(=O)COCCNC(=S)Nc1ccc2c(c1)C(=O)OC21c2ccc(O)cc2Oc2cc(O)ccc21)C(=O)N[C@@H](Cc1ccc([N+](=O)[O-])cc1)C(=O)NC(Cc1cscn1)C(=O)N[C@@H](COP(=O)(O)O)C(N)=O` (stereo partly shown) [2i] ({FITC-AEA}-[dK][Nva][Phe(4-NO2)][ξAla(4-thiazolyl)][pS]-NH2) was tested, and the “fold change in binding affinity on truncation” value (FA KD relative to the previous (one amino acid longer) peptide) was “four-fold”, the “cumulative ΔΔG of truncating the entire N- or C-terminus” value (FA, relative to peptide 1 (2d: entire N-terminus; 2i: entire C-terminus)) was 4.3 kcal/mol and the “ΔΔG C-term (cumulative, whole C-terminus removed)” value (Table S3, C-term = 2i relative to 1, FA, mean of n = 3) was 4,31 kcal/mol. The “ΔΔG C-term (cumulative)” value (Table S3, C-term = 2i relative to 1, FA, replicate 1) was 4,39 kcal/mol, the “ΔΔG C-term (cumulative)” value (Table S3, C-term = 2i relative to 1, FA, replicate 2) was 4,30 kcal/mol and the “ΔΔG C-term (cumulative)” value (Table S3, C-term = 2i relative to 1, FA, replicate 3) was 4,23 kcal/mol. The “Fold change to previous” value [1] was 4,04, the “Fold change to previous” value [2] was 4,23 and the “Fold change to previous” value [3] was 3,56. For the same molecule, the “Fold change to previous” value [4] was 4,33, the ΔG [5] was -6,22 kcal/mol and the ΔG (from FA KD, replicate 1) was -6,22 kcal/mol. For the same molecule, the ΔG (from FA KD, replicate 2) was -6,25 kcal/mol, the ΔG (from FA KD, replicate 3) was -6,18 kcal/mol and the “ΔΔG (to previous)” value [6] was 0,85 kcal/mol. For the same molecule, the “ΔΔG (to previous)” value [7] was 0,75 kcal/mol, the “ΔΔG (to previous)” value [8] was 0,87 kcal/mol and the “ΔΔG (to previous)” value [9] was 0,82 kcal/mol.
